Results from patent US20220015355A1, “NOVEL CARRIER FLUIDS FOR LIQUID FUNGAL SPORE FORMULATIONS” (priority 2018, published 2022).
Like-named read-outs stand apart in the source and are kept apart here.

Experiments:
[1] = test system: P. lilacinum strain 251 spores; test: spore viability (germination rate on agar) of P. lilacinum spores in carrier fluid after storage at 30° C.; format: cell-based, Purpureocillium lilacinum
Experimental: (§1) 3 g of P. lilacinum strain 251 pure spore powder were transferred into a formulation vessel (IKA Type DT-20 mixing vessel with dispersion tool for Ultra Turrax) using a sterile spoon. 12 mL of fluid were added into the respective formulation vessel and dispersed using ultra turrax tube drive control for 1 min at 3000 rpm; change direction after 30 sec. After this 2.8 mL were transferred in four sample bottles (Wheaton Serum vial, Type I) leaving little headspace and closed tight using crimpneck caps (Macherey—Nagel type N 13) Afterwards all sample bottles were transferred to an incubator set at 30° C. and stored for a given time.
(§2) In regular intervals a sample was retrieved from the storage location and analyzed for spore viability. Therefore the original samples were thoroughly homogenized. Aliquots of 0.25 g or […] of each sample are transferred into 50 mL falcon tubes. The tubes were filled up to 25 g using a sterile aqueous solution containing 2% Tween 80 and homogenized by vortexing to achieve the first dilution step (1:100 dilution). This dilution is used for further dilution and spotting on agar.
(§3) For evaluation of spore germination rate prepare a 1:30000 dilution based on the 1:100 dilution achieved by multiple automated dilution (pipetting robot, 96 well plate). Afterwards 12×12 cm agar plates are taken and spotted with 10 times […] of each sample using an automated 12-Channel pipet. Wait until liquid is soaked up by agar and transfer agar plate to an incubator and incubate at 25° C. for 17 hours. Open the plate and place it under the microscope. Randomly choose one area per spot and record the number of germinated and non-germinated spores that are within the designated field. At least 200 spores per sample need to be evaluated. If needed count more than one field per spot.

[2] = test system: Isaria fumosorosea spores; test: spore viability of Isaria fumosorosea spores in carrier fluid after storage at 30° C., Method 1 (germination on agar); format: cell-based
Experimental: as §1, with “Method 1: 1.5 g” for “3 g”, “of Isaria fumosorosea” for “of P. lilacinum strain 251”, “spoon. 13.5” for “spoon. 12”
as §2
For evaluation of spore germination rate a 1:15000 dilution based on the 1:100 dilution achieved by multiple automated dilution (pipetting robot, 96 well plate) was prepared. Afterwards 12×12 cm agar plates were taken and spotted with 10 times 5 μL of each sample using an automated 12-Channel pipet. After all liquid is soaked up by agar the agar plates were incubated at 23° C. for 16 hours.

[3] = test system: Isaria fumosorosea spores; test: spore viability of Isaria fumosorosea spores in carrier fluid after storage, Method 2 (flow cytometry); format: cell-based
Experimental: Method 2: 0.5 g of Isaria fumosoresea pure spore powder were transferred into an Erlenmeyer flask using a sterile spoon. 24.5 mL of fluid were dispersed using Ultra-Turrax (IKA; Type T 25 D) for 1 min at 3,000 rpm. After this, 2.0 mL were transferred in 20 sample bottles (Wheaton Serum vial, Type I) leaving little headspace and closed tight using crimpneck caps (Macherey—Nagel type N 13). Afterwards all sample bottles were transferred to an incubator set at 30° C. and stored for a given time.
In regular intervals a sample was retrieved from the storage location and analyzed for spore viability. For this purpose, the original samples were thoroughly homogenized. Aliquots of 0.5 g of each sample were transferred into 100 mL-Erlenmeyer flask. The flasks were filled up to 50 g using a sterile aqueous solution containing 0.1% Break Thru® 5240 (Evonik, Industries) and homogenized on a magnetic stirrer (Thermo Fisher Scientific: Cimarec™) at least for 15 min with 750 rpm to achieve the first dilution step (1:100 dilution). This dilution was used for further dilution.
Not all samples mixed well or mixed at all in 0.1% Break Thru 5240. For these samples, 500 μL Neo-wett (Kwizda Agro GmbH) and/or a small amount (knife tip) Metaupon®-OMT (LEUNA Tenside GmbH) were also added to the aqueous solution.
After homogenization 1 mL were transferred into a 1.5 mL tube and were centrifuged for 15 min at 14,000 rpm (Thermo Fisher Scientific, Type Megafuge 8R). The supernatant (=upper phase) was discarded by using a pipette. The tubes were filled up to 1 mL using a sterile aqueous solution containing 0.1% Neo-wett and homogenized by vortexing.
To assess fungal viability, a method based on flow cytometry was used.

[4] = test system: Beauveria Bassiana spores; test: spore viability (germination rate on agar) of Beauveria bassiana spores in carrier fluid after storage at 30° C.; format: cell-based
Experimental: as §1, with “1.5 g” for “3 g”, “of Beauveria Bassiana” for “of P. lilacinum strain 251”, “spoon. 13.5” for “spoon. 12”
as §2
as §3, with “1:15000” for “1:30000”, “20°” for “25°”

[5] = test system: Penicillium bilaii (ATCC 20851) spores; test: spore viability (germination rate on agar) of Penicillium bilaii spores in carrier fluid after storage at 30° C.; format: cell-based
Experimental: as §1, with “1.5 g” for “3 g”, “of Penicillium bilaii (ATCC 20851)” for “of P. lilacinum strain 251”, “spoon. 13.5” for “spoon. 12”
as §2
as §3, with “1:15000” for “1:30000”, “20°” for “25°”

[6] = P. lilacinum strain 251 in the liquid, day 1
[7] = I. fumosorosea, Method 1, day 1
[8] = Method 1, storage at 30° C., 27 d
[9] = Method 1, storage at 30° C., 210 d

Compound | spore viability [%] after 1 m (27-28 d) [1] | spore viability [%] after 2 m (51-55 d) [1] | spore viability [%] after 2 w (12-15 d) [1] | spore viability [%] after 7 m (210 d) [1] | spore viability [%] at day 1 [1] | spore viability [%] after 1 m (27 d) [2] | spore viability [%] at day 1 [2] | spore viability [%] after 1 m (27 d) [3] | spore viability [%] after 2 w (~14 d) [3] | spore viability [%] at day 1 [3] | spore viability [%] at day 1 [4] | spore viability [%] 3 m@30° C. (83-85 d) [5] | spore viability [%] 6 w@30° C. (41-43 d) [5] | spore viability [%] initial (1-2 d) [5] | spore viability [%] at day 1 [1, 6] | spore viability [%] after 2 w (12-15 d) ([1]; storage at 30° C., 12-15 d) | spore viability [%] after 1 m (27-28 d) ([1]; storage at 30° C., 27-28 d) | spore viability [%] after 2 m (51-55 d) ([1]; storage at 30° C., 51-55 d) | spore viability [%] at day 1 [2, 7] | spore viability [%] after 1 m (27 d) [2, 8] | also measured
Polyethyleneglycol-400 dioleate [Radiasurf 7442] | 98.2% | 96.8% | 96.5% | 88.3% | 98.7% | 72.1% | 89.4% | 66.3% | 69.6% | 87.4% | 85.9% | 76.5% | 91% | 96.7% | – | – | – | – | – | – | spore viability [%] after 3 w (21 d) [4]: 33.2%
Polyethyleneglycol-400 monooleate [Radiasurf 7403] | 98.9% | 93.7% | 98.3% | 78.3% | 98.6% | 76.2% | 94.0% | 92.0% | 86.0% | 89.0% | 81.4% | 61.8% | 66.8% | 78.1% | – | – | – | – | – | – | spore viability [%] after 2 w (14 d) [4]: 77.3%; spore viability [%] after 5 w (35 d) [4]: 72.3%; spore viability after storage for 3w or longer at 30° C. [4]: ≥ 50%
CCCCOCCOCCO [Butylcarbitol, diethylenglycol monobutylether, reference compound] | – | – | – | – | – | – | – | – | – | – | – | – | – | – | 92.7% | 62.1% | 10.8% | 3.2% | 19.1% | 0.5% | spore viability [%] after 7 m (210 d) ([1]; storage at 30° C., 210 d): 0.6%; decline in spore viability at day 1 and after storage ([1]; text summary of Table I, fluids not within the scope of the invention): steep decline in spore viability; spore viability [%] after 7 m (210 d) [2, 9]: 2.4%; spore viability [%] at day 1 ([4]; Beauveria bassiana, day 1): 53.3%; decline in spore viability after storage under given conditions ([4]; Table III, fluids not within the scope of the invention): steep decline in spore viability; spore viability [%] after 5 w (35 d) ([4]; storage at 30° C., 35 d): 0.8%
Polyethyleneglycol-200 monooleate [Radiasurf 7402] | 64.8% | 34.7% | 83.6% | – | 96.7% | 11.6% | 92.5% | 15.8% | 20.5% | 89.9% | – | – | – | – | – | – | – | – | – | – | spore viability [%] after 7 m (210 d) [2]: 1.1%
COC(C)COC(C)COC(C)CO (stereo not drawn) [Dowanol TPM, Tripropylene Glycol monomethyl ether] | – | – | – | – | – | – | – | – | – | – | – | – | – | – | 85.4% | 94.3% | 95.6% | 84.5% | 88.0% | 65.4% | spore viability [%] after 7 m (210 d) [2, 9]: 52.6%; spore viability [%] at day 1 ([3]; I. fumosorosea, Method 2, day 1): 82.0%; spore viability [%] after 1 m (27 d) ([3]; Method 2, storage at 30° C., 27 d): 59.0%; spore viability [%] at day 1 ([4]; Beauveria bassiana, day 1): 63.9%; spore viability [%] after 2 w (14 d) ([4]; storage at 30° C., 14 d): 19.0%; spore viability [%] after 5 w (35 d) ([4]; storage at 30° C., 35 d): 15.5%; spore viability [%] initial (1-2 d) ([5]; Penicillium bilaii, 1-2 d): 67.2%; spore viability [%] 6 w@30° C. (41-43 d) ([5]; storage at 30° C., 41-43 d): 7.6%; spore viability [%] 3 m@30° C. (83-85 d) ([5]; storage at 30° C., 83-85 d): 2.8%
